Measurements as given in ChEMBL document CHEMBL5338783, “Discovery of an Anti-TNF-α 9-mer Peptide from a T7 Phage Display Library for the Treatment of Inflammatory Bowel Disease” (J Med Chem, 2023).
Calls of active or inactive are those of the source. The rule behind the calls is not given here. Peptide text beside a SMILES is read from it.

Tests used:
[1] = molecular target: T1, Tumor necrosis factor receptor superfamily member 1A (Homo sapiens) (UniProt P19438); assay: Inhibition of TNF-alpha (unknown origin) binding to TNFR1 by SPR analysis
T1 sequence (whole entry): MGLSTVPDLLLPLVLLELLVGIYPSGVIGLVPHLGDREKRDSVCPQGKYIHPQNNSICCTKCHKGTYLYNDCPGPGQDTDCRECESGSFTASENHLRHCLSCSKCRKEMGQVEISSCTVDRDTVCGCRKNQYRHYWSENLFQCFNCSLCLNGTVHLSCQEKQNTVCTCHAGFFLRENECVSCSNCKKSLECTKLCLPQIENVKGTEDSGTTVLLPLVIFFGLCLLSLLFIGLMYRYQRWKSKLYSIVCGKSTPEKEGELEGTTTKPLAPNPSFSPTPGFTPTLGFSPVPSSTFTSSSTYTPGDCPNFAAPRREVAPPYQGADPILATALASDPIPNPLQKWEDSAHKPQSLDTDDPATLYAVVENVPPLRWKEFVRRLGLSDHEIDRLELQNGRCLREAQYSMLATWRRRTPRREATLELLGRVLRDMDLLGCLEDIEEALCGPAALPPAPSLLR

L929 = assay: Cytotoxicity against mouse L929 cells upto 1000 uM; assay type: toxicity, cell-based; conditions: l929, 1000 µM
RAW264.7 [2] = assay: Antiinflammatory activity in mouse RAW264.7 cells assessed as decrease in LPS-stimulated TNF-alpha protein expression incubated for 3 hrs by flow cytometry; assay type: functional, cell-based; conditions: dose 25-100 µM
Mus musculus [3] = assay: Antiinflammatory activity against DSS-induced acute colitis in C57BL/6 mouse model assessed as decrease in p38 phosphorylation in colon tissue administered intraperitoneally daily for 7 days by Western blot analysis; assay type: functional, organism-based; conditions: dose 0.5-1 mg/kg, route ip, time 7.0 day
Mus musculus [4] = assay: Antiinflammatory activity against DSS-induced acute colitis in C57BL/6 mouse model assessed as decrease in p65 phosphorylation in colon tissue administered intraperitoneally daily for 7 days by Western blot analysis; assay type: functional, organism-based; conditions: dose 0.5-1 mg/kg, route ip, time 7.0 day
RAW264.7 [5] = assay: Antiinflammatory activity in mouse RAW264.7 cells assessed as decrease in LPS-stimulated IL-6 mRNA level at 25 to 100 uM incubated for 3 hrs by RT-qPCR analysis; assay type: functional, cell-based; conditions: dose 25-100 µM
[6] = Toxicity in DSS-induced acute colitis in C57BL/6 mouse model assessed as animal survival at 0.5 to 1 mg/kg, ip daily for 11 days; assay type: organism-based; conditions: in vivo, 264 h, dose 0.5-1 mg/kg, time 11 day
RAW264.7 [7] = assay: Antiinflammatory activity in mouse RAW264.7 cells assessed as decrease in LPS-stimulated IFN-gamma mRNA level at 25 to 100 uM incubated for 3 hrs by RT-qPCR analysis; assay type: functional, cell-based; conditions: dose 25-100 µM
Mus musculus [8] = assay: Antiinflammatory activity against DSS-induced acute colitis in C57BL/6 mouse model assessed as decrease in ERK1/2 phosphorylation in colon tissue administered intraperitoneally daily for 7 days by Western blot analysis; assay type: functional, organism-based; conditions: dose 0.5-1 mg/kg, route ip, time 7.0 day
Mus musculus [9] = assay: Anti-colitis activity against DSS-induced acute colitis in C57BL/6 mouse model assessed as decrease in disease activity index at 0.5 to 1 mg/kg, ip daily for 7 days; assay type: functional, organism-based; conditions: dose 0.5-1 mg/kg, time 7.0 day
RAW264.7 [10] = assay: Antiinflammatory activity in LPS-stimulated mouse RAW264.7 cells assessed as inhibition of IkappaBalpha phosphorylation incubated for 3 hrs by Western blot analysis; assay type: functional, cell-based; conditions: dose 25-100 µM
Tumor necrosis factor = Tumor necrosis factor (Homo sapiens, UniProt P01375); assay: Binding affinity to TNF-alpha (unknown origin) assessed as dissociation constant by SPR analysis
Mus musculus [11] = assay: Anti-colitis activity against DSS-induced acute colitis in C57BL/6 mouse model assessed as decrease in disease activity index at 0.5 to 1 mg/kg, ip daily for 11 days; assay type: functional, organism-based; conditions: dose 0.5-1 mg/kg, time 11.0 day
Mus musculus [12] = assay: Anti-colitis activity against DSS-induced acute colitis in C57BL/6 mouse model assessed as reduction in colonic tissue damage at 0.5 to 1 mg/kg, ip daily for 7 days by H and E staining based analysis; assay type: functional, organism-based; conditions: dose 0.5-1 mg/kg, time 7.0 day
RAW264.7 [13] = assay: Antiinflammatory activity in mouse RAW264.7 cells assessed as decrease in LPS-stimulated IL-6 protein expression incubated for 3 hrs by flow cytometry; assay type: functional, cell-based; conditions: dose 25-100 µM
RAW264.7 [14] = assay: Antiinflammatory activity in mouse RAW264.7 cells assessed as decrease in LPS-stimulated IFN-gamma protein expression incubated for 3 hrs by flow cytometry; assay type: functional, cell-based; conditions: dose 25-100 µM
Mus musculus [15] = assay: Anti-colitis activity against DSS-induced acute colitis in C57BL/6 mouse model assessed as reduction in colon length at 0.5 to 1 mg/kg, ip daily for 11 days; assay type: functional, organism-based; conditions: dose 0.5-1 mg/kg, time 11.0 day
RAW264.7 [16] = assay: Antiinflammatory activity in LPS-stimulated mouse RAW264.7 cells assessed as inhibition of p65 phosphorylation incubated for 3 hrs by Western blot analysis; assay type: functional, cell-based; conditions: dose 25-100 µM
RAW264.7 [17] = assay: Antiinflammatory activity in LPS-stimulated mouse RAW264.7 cells assessed as inhibition of ERK1/2 phosphorylation incubated for 3 hrs by Western blot analysis; assay type: functional, cell-based; conditions: dose 25-100 µM
Mus musculus [18] = assay: Anti-colitis activity against DSS-induced acute colitis in C57BL/6 mouse model assessed as protection of body weight loss at 0.5 to 1 mg/kg, ip daily for 7 days; assay type: functional, organism-based; conditions: dose 0.5-1 mg/kg, time 7.0 day
Mus musculus [19] = assay: Anti-colitis activity against DSS-induced acute colitis in C57BL/6 mouse model assessed as […] in IFN-gamma mRNA level at 0.5 to 1 mg/kg, ip daily for 7 days by RT-qPCR analysis; assay type: functional, organism-based; conditions: dose 0.5-1 mg/kg, time 7.0 day
BMDM [20] = assay: Antiinflammatory activity in mouse BMDM cells assessed as decrease in LPS-stimulated IFN-alpha mRNA level incubated for 3 hrs by RT-qPCR analysis; assay type: functional, cell-based; conditions: dose 25-100 µM
BMDM [21] = assay: Antiinflammatory activity in LPS-stimulated mouse BMDM cells assessed as inhibition of MAPK signalling pathway incubated for 3 hrs by Western blot analysis; assay type: functional, cell-based; conditions: dose 25-100 µM
Mus musculus [22] = assay: Anti-colitis activity against DSS-induced acute colitis in C57BL/6 mouse model assessed as reduction in goblet cell depletion in colon at 0.5 to 1 mg/kg, ip daily for 11 days by H and E staining based analysis; assay type: functional, organism-based; conditions: dose 0.5-1 mg/kg, time 11.0 day
Mus musculus [23] = assay: Anti-colitis activity against DSS-induced acute colitis in C57BL/6 mouse model assessed as reduction in colon length at 0.5 to 1 mg/kg, ip daily for 7 days; assay type: functional, organism-based; conditions: dose 0.5-1 mg/kg, time 7.0 day

Tumor necrosis factor, sequence (P01375 whole entry): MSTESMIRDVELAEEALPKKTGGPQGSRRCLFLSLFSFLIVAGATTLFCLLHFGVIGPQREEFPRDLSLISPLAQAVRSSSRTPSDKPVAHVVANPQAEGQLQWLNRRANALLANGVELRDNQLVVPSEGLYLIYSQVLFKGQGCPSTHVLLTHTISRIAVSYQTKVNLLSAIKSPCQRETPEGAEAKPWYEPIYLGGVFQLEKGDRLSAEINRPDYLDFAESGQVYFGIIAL

In the case of C[C@H](N)C(=O)N[C@@H](CS)C(=O)N[C@@H](Cc1cnc[nH]1)C(=O)N[C@@H](C)C(=O)N[C@@H](Cc1c[nH]c2ccccc12)C(=O)N[C@@H](C)C(=O)N1CCC[C@H]1C(=O)N[C@H](C(=O)N[C@@H](CCCNC(=N)N)C(=O)O)[C@@H](C)O (H-ACHAWAPTR-OH), the inhibition [1] is reported as “Active”, the Activity (L929) is reported as “Non-Toxic” and the Activity (RAW264.7 [2]) is reported as “Dose-Dependent Effect”. For the same compound, the Activity (Mus musculus [3]) was “Dose-Dependent Effect”, the Activity (Mus musculus [4]) was “Dose-Dependent Effect” and the Activity (RAW264.7 [5]) was “Dose-Dependent Effect”. For the same compound, the Activity [6] was “Non-Toxic”, the Activity (RAW264.7 [7]) was “Dose-Dependent Effect” and the Activity (Mus musculus [8]) was “Dose-Dependent Effect”. The Activity (Mus musculus [9]) was “Active”, the Activity (RAW264.7 [10]) was “Dose-Dependent Effect” and the Kd (Tumor necrosis factor) was 6 µM. For the same compound, the Activity (Mus musculus [11]) was “Active”, the Activity (Mus musculus [12]) was “Active” and the Activity (RAW264.7 [13]) was “Dose-Dependent Effect”. The Activity (RAW264.7 [14]) was “Dose-Dependent Effect”, the Activity (Mus musculus [15]) was “Active” and the Activity (RAW264.7 [16]) was “Dose-Dependent Effect”. The Activity (RAW264.7 [17]) was “Dose-Dependent Effect”, the Activity (Mus musculus [18]) was “Active” and the Activity (Mus musculus [19]) was “Active”. The Activity (BMDM [20]) was “Dose-Dependent Effect”, the Activity (BMDM [21]) was “Dose-Dependent Effect” and the Activity (Mus musculus [22]) was “Active”. For the same compound, the Activity (Mus musculus [23]) was “Active”.
